# Results taken from patent publication US12338296B2, “Peptides and compounds that bind to elongation initiation factor 4E” (AGENCY FOR SCIENCE, TECHNOLOGY AND RESEARCH, priority 2019, dated 2025).
# Entries after “also recorded” stand apart in the source; their conditions may differ.
# Tests used:
# eIF4E [1] = molecular target: T1, eIF4E (Homo sapiens, UniProt P06730); assay: Fluorescence anisotropy direct titration of eIF4E against FAM labelled tracers; details: 50 nM tracer, eIF4E titrated, 1:1 binding model; read-out: Kd for interaction of labelled tracer with eIF4E
# T1 construct: made in house; Plasmid and cells were provided by Cyclacel Ltd., Dundee
# T1 sequence (P06730 whole entry): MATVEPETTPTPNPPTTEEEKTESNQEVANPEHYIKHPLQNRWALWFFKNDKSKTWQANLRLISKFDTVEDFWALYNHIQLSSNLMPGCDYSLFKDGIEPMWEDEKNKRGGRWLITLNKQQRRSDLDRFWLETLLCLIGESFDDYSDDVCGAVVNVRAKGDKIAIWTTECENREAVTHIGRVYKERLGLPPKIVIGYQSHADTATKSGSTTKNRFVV
# Excerpt: Fluorescence Anisotropy Assays and Kd Determination.
# Both were used later for subsequent Kd determination in competition experiments.
# eIF4E cap-binding site = molecular target: T2, eIF4E cap-binding site (Homo sapiens, UniProt P06730); assay: Competitive fluorescence polarization, cap analogue binding assessment (FAM labelled m7GTP); details: eIF4E 250 nM, labelled m7GTP 50 nM; FIG. 1B; listed as EE-02
# T2 construct: made in house; Plasmid and cells were provided by Cyclacel Ltd., Dundee
# T2 sequence (P06730 whole entry): as above
# Procedure: Apparent Kd values were determined by fitting the experimental data to the equations shown below:
# [formula] [L]st and [L]t denote labeled ligand and total unlabeled ligand input concentrations, respectively. Kd2 is the dissociation constant of the interaction between the unlabelled ligand and the protein. In all competitive types of experiments, it is assumed that [P]t>[L]st, otherwise considerable amounts of free labeled ligand would always be present and would interfere with measurements. Kd1 is the apparent Kd for the labeled peptide used in the respective experiment. […] Readings were carried out with a Envision Multi-label Reader (PerkinElmer). Experiments were carried out in PBS (2.7 mM KCl, 137 mM NaCl, 10 mM NaHPO4 and 2 mM KHPO4 (pH 7.4)), 3% DMSO (v/v) and 0.1% Tween 20 buffer. All titrations were carried out in triplicate. Curve-fitting was carried out using Prism 4.0 (GraphPad). […]
# From these initial results it was predicted the new peptide motif might interact with eIF4E either via a different binding pose at the eIF4G binding site, or at the cap-binding site or elsewhere on the protein. The binding site was initially delineated on eIF4E by using two types of competitive fluorescence polarization experiments, one of which utilised a FAM labelled cap-analogue and the other that used a FAM labelled eIF4G1 derived peptide (FIG. 1).
# eIF4E [2] = molecular target: T1, eIF4E; assay: Tryptophan quenching experiments; assay type: binding; details: 1 μM eIF4E, 0.01-20 μM titrant, excitation 290 nm, emission 355 nm; FIG. 2
# Procedure: Tryptophan Quenching Experiments
# Tryptophan quenching experiments were performed using an EnVision® multiplate reader with black matte 96-well plates. […] Concentrations tested ranged from 0.01-20 μM. Samples were excited with UV light at 290 nm to minimise contribution from tyrosine fluorescence. Tryptophan was measured at an emission wavelength of 355 nm.
Kd (eIF4E [1]) [nM],Molecule,displacement of fluorescently labelled m7GTP from eIF4E (eIF4E cap-binding site),tryptophan quenching of eIF4E (eIF4E [2])
149,m^7GTP-6-FAM,,
,CSCC[C@@H]1NC(=O)[C@H](CCC(=O)O)NC(=O)[C@@H](NC(=O)[C@H](C)N)CSSC[C@@H](C(=O)NCC(N)=O)NC(=O)[C@H](CC(=O)O)NC(=O)[C@H](CCC(N)=O)NC(=O)[C@H](Cc2ccccc2)NC(=O)[C@H](Cc2ccccc2)NC(=O)CNC1=O [EE-2],most potent peptide out of the set identified; also recorded: can displace fluorescently labelled m7GTP,significantly different profile to m7GTP/m7GDP
